Measurements from patent publication US6569832B1, “Inhibition of beta cell degeneration” (Novo Nordisk A/S, priority 1999, dated 2003).

Columns and labels:
beta-cells [1] = assay: beta-cell proliferation rate (BrDU incorporation) in pancreas of treated ZDF rats; type: in vivo, male Zucker Diabetic Fatty fa/fa (ZDF) rat
Source text: (§1) The male Zucker Diabetic Fatty fa/fa (ZDF) rat is a model of Type 2 diabetes. The rats are insulin resistant but normoglycemic from birth and they develop diabetes from about week 7 to week 10 of age. During the transitional period, the animals go through a state of impaired glucose tolerance. Although the animals are hyperinsulinemic before diabetes onset and during the early stages of diabetes, they later lose glucose-stimulated insulin secretion and finally become almost completely insulinopenic.
We have studied the effects of Arg^34, Lys^26(N-ε-(γ-Glu(N-α-hexadecanoyl)))-GLP-1(7-37) therapy during a period of time when the animals would normally progress from having impaired glucose tolerance to having overt Type 2 diabetes. Three groups of male ZDF rats (Genetic Models Inc, Indianapolis, Ind., USA) were studied and dosed subcutaneously bi-daily with either vehicle (group A), 30 (group B) or 150 μg/kg (group C) of Arg^34, Lys^26(N-ε-(γ-Glu(N-α-hexadecanoyl)))-GLP-1(7-37), n=6 per group. Animals were between 7 and 8 weeks old when dosing was initiated, and fed glucose levels were not different between the groups before dosing began.
Bromodeoxyuridine (BrDU) is incorporated in newly synthesized DNA and thus will label replicating cells. Six hours before sacrifice the rats were given an injection of 100 mg BrDU/kg intraperitoneally. […]

beta-cells [2] = assay: volume fraction of beta-cells related to total pancreas volume in treated ZDF rats (point counting stereology); type: in vivo, male Zucker Diabetic Fatty fa/fa (ZDF) rat
Source text: as §1
We have studied the effects of Arg^34, Lys^26(N-ε-(γ-Glu(N-α-hexadecanoyl)))-GLP-1(7-37) therapy during a period of time when the animals would normally progress from having impaired glucose tolerance to having overt Type 2 diabetes. […]
Neighbor sections were stained for insulin and the combination of glucagon-somatostatin-pancreatic polypeptide for the measurement of the relative mass of islet beta-cells and nonbeta-cells. […] The nonbeta-cells were stained with a mixture of monoclonal mouse anti-glucagon+rabbit anti-somatostatin+rabbit anti-pancreatic polypeptide, detected by biotinylated swine anti-multible Ig's, avidin peroxidase, and developed with DAB and CuSO4 to give a dark brown stain. […]

neonatal rat islet cells = assay: cytokine-induced apoptosis in neonatal rat islet cells (annexin V-FITC/PI flow cytometry); type: cell-based
Description: Neonatal rats were sacrificed and pancreata were aseptically isolated. Islets of Langerhans were isolated by standard techniques. Intact islets were cultured in 6-well tissue culture plates at 750 islets/well (Nunc, Roskilde, Denmark) with or without 40 U/ml recombinant rat interleukin 1, 100 U/ml interferon-γ, and 100 U/ml tumor necrosis factor-α (all from Peprotech, London, UK) and the indicated doses of the GLP-1 derivative, Arg^34, Lys^26(N-ε-(γ-Glu(N-α-hexadecanoyl)))-GLP-1(7-37). After 24 hours of in vitro culture, single cell suspensions were obtained from the islets by gentle triturating in trypsin. After 2 rounds of washing, islet cells were reacted with annexin V-FITC and propedium iodide (PI) using a commercial staining kit according to the manufactures recommendations (Pharmingen, San Diego, Calif., USA). At the end of incubation the samples were analyzed by flow cytometry using a FACScalibur (Becton Dickinson, Mountain View, Calif., USA). Dead cells were excluded by gating on PI-negative cells, 25000 viable cells were acquired per sample. Data were analyzed using the CellQuest software (Becton Dickinson).

Substance: Arg^34, Lys^26(N-ε-(γ-Glu(N-α-hexadecanoyl)))-GLP-1(7-37)
- beta-cell proliferation at the dose where volume of beta-cells increased (beta-cells [1]; 30 ng/g): proliferation was not seen
- fraction of beta-cells that had incorporated BrDU (percentage of BrDU positive beta-cells) (beta-cells [1]; subcutaneously bi-daily 30 or 150 μg/kg vs vehicle, n=6 per group, BrDU 6 hours before sacrifice): dose dependent increase
- beta-cell fraction of the total pancreas compared to vehicle treated rats (beta-cells [2]; 30 ng/g for 6 weeks): significantly higher
- beta-cell fraction of the total pancreas, further increase over the 30 ng/g dose (beta-cells [2]; 150 ng/g): no further increase
- reduction in the cytokine-induced apoptosis (neonatal rat islet cells; 100 nM, 24 hours with interleukin 1 40 U/ml, interferon-γ 100 U/ml, tumor necrosis factor-α 100 U/ml): approximately 50%
- block of cytokine-induced apoptosis in islet cells ex vivo (neonatal rat islet cells; 24 hour incubation with cytokine mix): able to block
- effect of the compound itself on the level of islet cell apoptosis (neonatal rat islet cells; without cytokine mix, 24 hours): no effect
